How the values were obtained:
Protein cereblon = Protein cereblon (Homo sapiens, UniProt Q96SW2); assay: Binding affinity to CRBN (unknown origin) assessed as inhibition constant by FRET assay
[1] = Inhibition of RING1B-BMI1 (unknown origin); set-up: species or system Homo sapiens
[2] = Binding affinity to RING1B-BMI1 (unknown origin); set-up: species or system Homo sapiens
[3] = molecular target: von Hippel-Lindau disease tumor suppressor (Homo sapiens, UniProt P40337); assay: Binding affinity to VHL (unknown origin) assessed as dissociation constant by isothermal titration calorimetry assay
Chain of von Hippel-Lindau disease tumor suppressor (P40337 whole entry): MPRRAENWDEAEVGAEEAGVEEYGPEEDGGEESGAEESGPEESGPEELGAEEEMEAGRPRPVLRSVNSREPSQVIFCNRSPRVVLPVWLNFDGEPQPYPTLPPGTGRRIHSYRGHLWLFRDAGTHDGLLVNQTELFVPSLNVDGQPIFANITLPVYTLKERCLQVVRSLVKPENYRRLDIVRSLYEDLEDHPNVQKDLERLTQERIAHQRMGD

[4] = molecular target: T1, E3 ubiquitin-protein ligase RNF31 (Homo sapiens, UniProt Q96EP0); assay: Binding affinity to HOIP (unknown origin) assessed as dissociation constant
T1 sequence (Q96EP0 whole entry): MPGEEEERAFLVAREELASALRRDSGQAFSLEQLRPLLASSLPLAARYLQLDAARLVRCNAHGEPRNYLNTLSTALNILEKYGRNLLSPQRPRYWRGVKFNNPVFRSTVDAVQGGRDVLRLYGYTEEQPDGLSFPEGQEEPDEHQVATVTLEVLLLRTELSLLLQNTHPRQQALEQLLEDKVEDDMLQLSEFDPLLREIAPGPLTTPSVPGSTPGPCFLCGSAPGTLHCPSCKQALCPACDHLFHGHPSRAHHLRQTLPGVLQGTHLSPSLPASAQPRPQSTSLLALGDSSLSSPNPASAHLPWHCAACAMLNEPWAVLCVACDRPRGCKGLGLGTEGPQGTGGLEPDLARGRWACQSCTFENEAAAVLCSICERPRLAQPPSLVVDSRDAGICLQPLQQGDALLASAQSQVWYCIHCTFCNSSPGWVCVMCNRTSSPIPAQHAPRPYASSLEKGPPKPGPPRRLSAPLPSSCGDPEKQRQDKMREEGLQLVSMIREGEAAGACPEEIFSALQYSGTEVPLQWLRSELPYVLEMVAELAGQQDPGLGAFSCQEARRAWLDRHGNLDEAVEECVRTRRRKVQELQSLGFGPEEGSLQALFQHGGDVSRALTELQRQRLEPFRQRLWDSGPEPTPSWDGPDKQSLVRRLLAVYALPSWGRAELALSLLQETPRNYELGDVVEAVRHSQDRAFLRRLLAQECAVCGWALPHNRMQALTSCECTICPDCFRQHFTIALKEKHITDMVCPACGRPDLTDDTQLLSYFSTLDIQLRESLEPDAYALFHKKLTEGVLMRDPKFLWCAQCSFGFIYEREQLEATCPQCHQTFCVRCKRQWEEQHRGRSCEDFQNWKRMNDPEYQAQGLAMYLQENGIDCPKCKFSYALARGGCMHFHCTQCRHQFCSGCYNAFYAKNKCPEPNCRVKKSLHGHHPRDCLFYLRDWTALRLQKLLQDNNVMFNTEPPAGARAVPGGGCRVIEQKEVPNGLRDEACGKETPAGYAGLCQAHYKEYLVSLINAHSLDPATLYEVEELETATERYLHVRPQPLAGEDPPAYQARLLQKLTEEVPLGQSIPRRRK

[5] = molecular target: T2, E3 ubiquitin-protein ligase RNF4 (Homo sapiens, UniProt P78317); assay: Inhibition of human recombinant RNF4 incubated for 30 mins by SDS-PAGE based densitometry
T2 sequence (P78317 whole entry): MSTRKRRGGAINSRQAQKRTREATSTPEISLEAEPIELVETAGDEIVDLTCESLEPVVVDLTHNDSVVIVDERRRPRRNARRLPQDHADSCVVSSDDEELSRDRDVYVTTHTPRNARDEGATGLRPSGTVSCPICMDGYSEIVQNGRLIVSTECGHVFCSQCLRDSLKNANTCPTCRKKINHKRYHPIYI

Chain of Protein cereblon (Q96SW2 whole entry): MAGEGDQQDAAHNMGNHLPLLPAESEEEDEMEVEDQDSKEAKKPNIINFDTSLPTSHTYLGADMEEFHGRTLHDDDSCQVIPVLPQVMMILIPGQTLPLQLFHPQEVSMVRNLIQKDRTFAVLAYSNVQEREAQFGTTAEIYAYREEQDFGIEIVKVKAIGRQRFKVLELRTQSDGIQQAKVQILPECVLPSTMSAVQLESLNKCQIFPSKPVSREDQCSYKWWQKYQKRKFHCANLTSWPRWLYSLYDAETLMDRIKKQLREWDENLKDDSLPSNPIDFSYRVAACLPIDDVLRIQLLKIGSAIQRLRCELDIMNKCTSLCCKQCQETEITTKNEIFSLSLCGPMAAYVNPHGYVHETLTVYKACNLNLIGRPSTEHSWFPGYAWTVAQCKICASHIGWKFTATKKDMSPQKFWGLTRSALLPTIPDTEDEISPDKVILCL

With `O=C1CCC(=O)N1` [SUCCINIMIDE] as the molecule, how does the Ki (Protein cereblon) read?
Its Ki is 4.3 µM.

What does the source list for `CCc1c(-c2cccc3[nH]ccc23)[nH]c(C(=O)O)c1-c1ccccc1Cl`?
IC50 [1]: 12 µM; Kd [2]: 11.5 µM

For `O=c1cc[nH]c(=O)[nH]1` [URACIL], which Ki (Protein cereblon) is on record?
The Ki was 35 µM.

What does the source list for `CC(C)c1c(-c2cccc3[nH]ccc23)[nH]c(C(=O)O)c1-c1c(Cl)ccc2[nH]ccc12`?
IC50 [1]: 1.6 µM; Kd [2]: 2.8 µM

With `O=C(O)c1ccc(-c2ccccc2)s1` as the molecule, how does the Kd [2] read?
Its Kd is ~7000 µM.

With `O=C1CNC(=O)N1` [HYDANTOIN] as the molecule, how does the Ki (Protein cereblon) read?
Its Ki is 43 µM.

For `OCc1ccc(-n2cccc2)cc1`, which Kd [3] is on record?
Its Kd is 5000 µM.

With `CC(=O)NC(N)=O` as the molecule, how does the Ki (Protein cereblon) read?
Its Ki is 522 µM.

With `O=C1CCN1` as the molecule, how does the Ki (Protein cereblon) read?
The Ki was 77 µM.

Which Ki (Protein cereblon) does the source give for `O=C1CCCCN1` here?
Its Ki is 146 µM.

With `COC(=O)/C=C/CNC(=O)c1cc2c([nH]c1=O)CCC2` as the molecule, how does the Kd [4] read?
The Kd was > 400 µM.

For `O=C1CCNC(=O)N1`, which Ki (Protein cereblon) is on record?
Its Ki is 88 µM.

With `O=C(CCl)Nc1ccc(Oc2ccccc2)cc1` as the molecule, how does the IC50 [5] read?
Its IC50 is 10 µM.

Which Kd [3] does the source give for `O=C1CCSc2ccc(Cl)cc21` here?
Its Kd is 6700 µM.

From ChEMBL document CHEMBL5338729, “E3 Ligases Meet Their Match: Fragment-Based Approaches to Discover New E3 Ligands and to Unravel E3 Biology” (J Med Chem, 2023)
